These results are taken from ChEMBL document CHEMBL5214930, “Discovery of the First Selective IDO2 Inhibitor As Novel Immunotherapeutic Avenues for Rheumatoid Arthritis” (J Med Chem, 2022).

Activity calls are given as the source filed them. No cut-off for these calls is given here.

The term inhibition denotes the percentage by which the read-out fell short of the control. By IC50 is commonly meant the concentration needed to halve the response being measured. A higher IC50 goes with weaker potency. In general, EC50 refers to the concentration that produces a half-maximal response. A high value points to weaker potency.

The target of one test is T1, Indoleamine 2,3-dioxygenase 1 (Homo sapiens, UniProt P14902). As to the kind of experiment: Inhibition of recombinant human IDO1 in HeLa cells at 100 nM relative to control. It counts as cell-based.
Settings: not given
Target sequence in this assay (P14902 whole entry, looked up): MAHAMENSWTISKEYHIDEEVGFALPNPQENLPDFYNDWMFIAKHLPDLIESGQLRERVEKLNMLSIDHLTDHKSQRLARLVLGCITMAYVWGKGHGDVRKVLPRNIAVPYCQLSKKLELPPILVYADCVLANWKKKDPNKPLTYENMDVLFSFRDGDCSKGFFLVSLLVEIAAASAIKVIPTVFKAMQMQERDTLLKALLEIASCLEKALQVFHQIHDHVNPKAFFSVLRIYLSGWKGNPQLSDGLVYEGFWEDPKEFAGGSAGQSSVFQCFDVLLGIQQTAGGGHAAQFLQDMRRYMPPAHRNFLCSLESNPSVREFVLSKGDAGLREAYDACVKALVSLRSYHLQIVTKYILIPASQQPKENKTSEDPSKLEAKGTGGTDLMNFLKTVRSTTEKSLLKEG
Consider `O=C(NCc1cn(CCNc2nonc2/C(=N/O)NCc2ccc(F)cc2)nn1)c1ccccn1`, for which the inhibition came out at 7%.
With `Cc1ccc(Br)cc1N/C(=N\O)c1nonc1NCCn1cc(CNC(=O)c2ccccn2)nn1`, the inhibition amounted to 18%.
The same measure, in the same setting: in the case of `O=C(NCc1cn(CCNc2nonc2/C(=N/O)NCc2ccc(Br)cc2)nn1)c1ccc[nH]1` it was 4%.
For `O=C(NCc1cn(CCNc2nonc2/C(=N/O)NCc2cccc(Br)c2)nn1)c1ccc[nH]1`, the inhibition turned out to be 12%.
For the compound `C[C@H](N/C(=N\O)c1nonc1NCCn1cc(CNC(=O)c2ccc[nH]2)nn1)c1cccc(Br)c1`, the inhibition was determined as 14%.
Same read-out and setting: in the case of `O=C(NCc1cn(CCNc2nonc2/C(=N/O)Nc2cc(Br)cc(Br)c2)nn1)c1ccccn1` it was 11%; in that of `O=C(NCc1cn(CCNc2nonc2/C(=N/O)NCc2ccc(F)c(Br)c2)nn1)c1ccc[nH]1`, 17%; in that of `O=C(NCc1cn(CCNc2nonc2/C(=N/O)NCc2ccc(Br)cc2)nn1)c1ccccn1`, 0%.
The same measure, in the same setting: the value for `O=C(NCc1cn(CCNc2nonc2/C(=N/O)Nc2cccc(Br)c2)nn1)c1ccccn1` was 71%.
Still for that read-out and setting: in the case of `O=C(NCc1cn(CCNc2nonc2/C(=N/O)Nc2ccc(F)c(Cl)c2)nn1)c1ccccn1` it was 52%; in that of `C[C@H](N/C(=N\O)c1nonc1NCCn1cc(CNC(=O)c2ccccn2)nn1)c1cccc(Br)c1`, 3%; in that of `O=C(NCc1cn(CCNc2nonc2/C(=N/O)Nc2cc(Br)cc(C(F)(F)F)c2)nn1)c1ccccn1`, 5%.

For a further test, the system named is Mus musculus. As to the kind of experiment: Antiarthritic activity against collagen-induced arthritis DBA/1J mouse model assessed as paw swelling at 15 mg/kg, ip administered from day 57 to 74 post CFA injection and measured every 3 days. It counts as functional, organism-based. The conditions noted are these: time 17.0 day.
Regarding `C[C@@H]1CCN(C(=O)CC#N)C[C@@H]1N(C)c1ncnc2[nH]ccc12`, the result was Active.

For the next test, the target named is T2, Indoleamine 2,3-dioxygenase 2 (Homo sapiens) (UniProt Q6ZQW0).
T2 sequence (whole entry): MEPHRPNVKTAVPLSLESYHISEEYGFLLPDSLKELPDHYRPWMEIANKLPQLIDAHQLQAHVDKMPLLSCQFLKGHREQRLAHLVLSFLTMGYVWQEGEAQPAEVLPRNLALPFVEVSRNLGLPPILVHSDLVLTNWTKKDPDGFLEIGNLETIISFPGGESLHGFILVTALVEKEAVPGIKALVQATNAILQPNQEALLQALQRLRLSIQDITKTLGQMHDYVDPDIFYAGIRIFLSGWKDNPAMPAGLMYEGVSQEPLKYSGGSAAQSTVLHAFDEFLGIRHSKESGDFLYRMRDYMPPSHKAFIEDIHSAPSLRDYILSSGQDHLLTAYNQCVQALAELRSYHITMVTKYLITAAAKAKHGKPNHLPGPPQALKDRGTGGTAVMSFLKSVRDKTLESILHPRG
The test can be described thus: Inhibition of recombinant human IDO2 in HeLa cells at 100 nM relative to control.
Settings: not given
Type of test: cell-based.
`Cc1ccc(Br)cc1N/C(=N\O)c1nonc1NCCn1cc(CNC(=O)c2ccccn2)nn1`: the inhibition is 15%.
`O=C(NCc1cn(CCNc2nonc2/C(=N/O)NCc2cccc(Br)c2)nn1)c1ccc[nH]1`: the inhibition turned out to be 24%.
Regarding `O=C(NCc1cn(CCNc2nonc2/C(=N/O)Nc2cc(Br)cc(Br)c2)nn1)c1ccccn1`, the inhibition turned out to be 15%.
Still for that read-out and setting: the value for `O=C(NCc1cn(CCNc2nonc2/C(=N/O)Nc2cccc(Br)c2)nn1)c1ccccn1` was 16%.
Same read-out and setting: the value for `O=C(NCc1cn(CCNc2nonc2/C(=N/O)Nc2ccc(F)c(Cl)c2)nn1)c1ccccn1` was 16%.

In another test the target is T1, Indoleamine 2,3-dioxygenase 1. As to the kind of experiment: Inhibition of human IDO1.
Settings: not given
Target sequence in this assay (P14902 whole entry): as the sequence (P14902 whole entry, looked up) above
As to `O=C(NCc1cn(CCNc2nonc2/C(=N/O)Nc2cccc(Br)c2)nn1)c1ccccn1`, the IC50 was found to be 37 nM.

A further test has as its system HeLa. The test can be described thus: Antiproliferative activity against human HeLa cells at 5 uM. It counts as functional.
Settings: not given
As to `C[C@H](N/C(=N\O)c1nonc1NCCn1cc(CNC(=O)c2ccc[nH]2)nn1)c1cccc(Br)c1`, the Activity was determined as 22.74%.
Still for that read-out and setting: the value for `C[C@H](N/C(=N\O)c1nonc1NCCn1cc(CNC(=O)c2ccccn2)nn1)c1cccc(Br)c1` was 17.87%.

In another test the target is T3, Indoleamine 2,3-dioxygenase 2 (Homo sapiens, UniProt Q6ZQW0).
T3 sequence (Q6ZQW0 whole entry): T2 sequence (whole entry)
As to the kind of experiment: Inhibition of human IDO2.
Settings: not given
`O=C(NCc1cn(CCNc2nonc2/C(=N/O)Nc2cccc(Br)c2)nn1)c1ccccn1` registered a half-inhibitory concentration (IC50) of 575 nM.

A further test concerns HeLa. As to the kind of experiment: Antiproliferative activity against human HeLa cells.
Settings: not given
It counts as functional, cell-based.
In turn, `O=C(NCc1cn(CCNc2nonc2/C(=N/O)NCc2ccc(F)cc2)nn1)c1ccccn1` gave a 50% effective concentration (EC50) of 1080 nM.
In turn, `Cc1ccc(Br)cc1N/C(=N\O)c1nonc1NCCn1cc(CNC(=O)c2ccccn2)nn1` came in with a half-maximal effective concentration (EC50) of 663 nM.
Same read-out and setting: in the case of `O=C(NCc1cn(CCNc2nonc2/C(=N/O)NCc2ccc(Br)cc2)nn1)c1ccc[nH]1` it was 2630 nM; in that of `O=C(NCc1cn(CCNc2nonc2/C(=N/O)NCc2cccc(Br)c2)nn1)c1ccc[nH]1`, 835 nM.
Still for that read-out and setting: in the case of `O=C(NCc1cn(CCNc2nonc2/C(=N/O)Nc2cc(Br)cc(Br)c2)nn1)c1ccccn1` it was 1450 nM; in that of `O=C(NCc1cn(CCNc2nonc2/C(=N/O)NCc2ccc(F)c(Br)c2)nn1)c1ccc[nH]1`, 1600 nM.
The same measure, in the same setting: the value for `O=C(NCc1cn(CCNc2nonc2/C(=N/O)NCc2ccc(Br)cc2)nn1)c1ccccn1` was 3420 nM; that for `O=C(NCc1cn(CCNc2nonc2/C(=N/O)Nc2cccc(Br)c2)nn1)c1ccccn1` was 65 nM; that for `O=C(NCc1cn(CCNc2nonc2/C(=N/O)Nc2ccc(F)c(Cl)c2)nn1)c1ccccn1` was 234 nM.
`O=C(NCc1cn(CCNc2nonc2/C(=N/O)Nc2cc(Br)cc(C(F)(F)F)c2)nn1)c1ccccn1` showed a half-maximal effective concentration (EC50) of 3630 nM.

In a further test the target is T2, Indoleamine 2,3-dioxygenase 2 (Homo sapiens). As to the kind of experiment: Inhibition of recombinant human IDO2 in HeLa cells at […] relative to control. It counts as cell-based.
Settings: not given
In the case of `O=C(NCc1cn(CCNc2nonc2/C(=N/O)NCc2ccc(F)cc2)nn1)c1ccccn1`, the inhibition came to 0%.
Take `Cc1ccc(Br)cc1N/C(=N\O)c1nonc1NCCn1cc(CNC(=O)c2ccccn2)nn1`: the inhibition was determined as 41%.
Consider `O=C(NCc1cn(CCNc2nonc2/C(=N/O)NCc2ccc(Br)cc2)nn1)c1ccc[nH]1`, for which the inhibition came to 0%.
Still for that read-out and setting: the value for `O=C(NCc1cn(CCNc2nonc2/C(=N/O)NCc2cccc(Br)c2)nn1)c1ccc[nH]1` was 70%; that for `C[C@H](N/C(=N\O)c1nonc1NCCn1cc(CNC(=O)c2ccc[nH]2)nn1)c1cccc(Br)c1` was 15%; that for `O=C(NCc1cn(CCNc2nonc2/C(=N/O)Nc2cc(Br)cc(Br)c2)nn1)c1ccccn1` was 52%.
The same measure, in the same setting: the value for `O=C(NCc1cn(CCNc2nonc2/C(=N/O)NCc2ccc(F)c(Br)c2)nn1)c1ccc[nH]1` was 0%; that for `O=C(NCc1cn(CCNc2nonc2/C(=N/O)NCc2ccc(Br)cc2)nn1)c1ccccn1` was 1%; that for `O=C(NCc1cn(CCNc2nonc2/C(=N/O)Nc2cccc(Br)c2)nn1)c1ccccn1` was 64%.
On the same count and under the same terms, the value for `O=C(NCc1cn(CCNc2nonc2/C(=N/O)Nc2ccc(F)c(Cl)c2)nn1)c1ccccn1` was 38%; that for `C[C@H](N/C(=N\O)c1nonc1NCCn1cc(CNC(=O)c2ccccn2)nn1)c1cccc(Br)c1` was 15%.
As for `O=C(NCc1cn(CCNc2nonc2/C(=N/O)Nc2cc(Br)cc(C(F)(F)F)c2)nn1)c1ccccn1`, the inhibition is 23%.
